This note sets out measurements from a melting point compilation (Tetko et al.; mined from patent text by program, amines drawn as free bases though some values may be those of a salt).

The structures appear in SMILES notation.

`O=C(c1ccc2[nH]c3ccccc3c2c1)N1CCCCC1`: the melting point was in the range of 221 to 222 °C.

On to `CCOC(=O)c1c(N[C@H]2CC[C@@H](c3ccccc3)CC2)ccnc1C`, for which the melting point was 191 °C.

Regarding `CC1CCCCC1NC(=O)C1=C(C(=O)Nc2cc(OC3CCCC3)c(Cl)cc2F)CCCC1` (stereo not given), the melting point fell in the range of 192 to 195 °C.

`CC(C)c1nc(CN(C)C(=O)N[C@H](C(=O)N[C@@H](Cc2ccccc2)C[C@H](O)[C@H](Cc2ccccc2)NC(=O)OCc2cnco2)C(C)C)cs1`: the melting point lay in the range of 59 to 61 °C.

For the molecule `Clc1cccc(N2CCN(Cc3ccc4ccccc4c3)CC2)c1`, the melting point lay in the range of 114 to 115 °C.

Regarding `O=C(Nc1ccccc1S(=O)(=O)c1ccccc1)N[C@@H](Cc1ccc(Oc2nccc3cnccc23)cc1)C(=O)O`, the melting point was determined as 136 °C.

In the case of `CCCCCc1ccc(OCC(=O)O)c(CCCCC)c1`, the melting point fell in the range of 115 to 120 °C.

For the molecule `Nc1cc(I)cnc1N`, the melting point lay in the range of 109 to 111 °C.

`O=C(Nc1ccc(-n2nc(-c3cncc(Br)c3)cc2OC(F)F)cc1)c1ccncc1F` came in with a melting point of 179 to 180 °C.

For `CC(C)(C)CNc1cc(NCC(C)(C)C)nc(N2CCNCC2)n1`, the melting point was in the range of 132 to 136 °C.

As to `O=c1[nH]c2cc(Br)ccc2c(=O)o1`, the melting point lay in the range of 280 to 281 °C.

As for `O=[N+]([O-])c1ccc(C2Nc3ccccc3-c3c([N+](=O)[O-])cnn32)cc1` (stereo not given), the melting point was 190 to 191 °C.

The molecule `CCN(CC)C(=O)c1ccc(Cl)c(C2(C)C(=O)N(Cc3ccc(OC)cc3OC)c3ccc(Cl)cc32)c1` (stereo not given) had a melting point of 86 °C.

In turn, `CCOC(=O)CSc1nc(-c2ccccc2)c(-c2ccccc2)o1` came in with a melting point of 53 to 55 °C.

As for `N#CCc1cc2c(cc1CC#N)OCO2`, the melting point fell in the range of 105 to 107 °C.

Take `Clc1cc(CBr)c(CBr)cc1Cl`: the melting point was 55 to 56 °C.

As for `CCOC(=O)C1=C(N)NC(c2ccccc2)=CC1c1cccc([N+](=O)[O-])c1` (stereo not given), the melting point lay in the range of 171 to 172 °C.

In the case of `CS(=O)(=O)Nc1cccc(CC2c3ccccc3CCc3ccccc32)c1`, the melting point was 149 °C.

In the case of `CN1C(=O)CCC2(C)C1=CCc1cc(F)ccc12` (stereo not given), the melting point lay in the range of 110 to 111 °C.

Regarding `O=C(NCc1ccncc1)c1cc(-n2cnn(Cc3ccc(F)cc3)c2=O)n[nH]1`, the melting point lay within 262 to 263 °C.

Molecule `Clc1ccc(-c2nc(Br)cnc2Br)cc1` registered a melting point of 123 to 125 °C.

The molecule `CC(C)c1nc(-c2ccccc2)nc(-c2ccc(F)cc2)c1C=CI` gave a melting point of 119 to 122 °C.

`O=C(O)C(CN1C(=O)CNC1=O)CS(=O)(=O)c1ccc(-c2ccc(Cl)cc2)cc1` (stereo not given) had a melting point of 188 to 190 °C.

As for `O=C(Nc1ccc(C(CC2CCCC2)C(=O)Nc2nccs2)cc1)c1cccnc1` (stereo not given), the melting point was 240 to 242 °C.

Molecule `O=C(Nc1ccc(-n2nc(C(F)(F)F)cc2C(F)(F)F)cc1)c1cc(F)cc(F)c1F` displayed a melting point of 169 to 170 °C.

The molecule `CCCCCNC(=O)N(C)c1cccc(-c2ccc(C=C(OC)C(=O)O)cc2OCCCC)c1` returned a melting point of 61 °C.

Turning to `COc1cc(CCC(=O)O)cc(I)c1O`, the melting point lay in the range of 96 to 97 °C.

As to `O=C1Cc2cc(NC(=O)C(=O)N3CCC(COc4ccccc4)CC3)ccc2N1`, the melting point was 200 to 202 °C.

The molecule `O=[N+]([O-])c1ccc(F)cc1CS(=O)(=O)c1ccccc1` gave a melting point of 169 to 171 °C.

`CCOC(=O)C1=CC(C)C2=c3c1cccc3=C1N=NC=C12` (stereo not given): the melting point fell in the range of 107 to 109 °C.

In turn, `N#CCCn1cc(C#N)c([N+](=O)[O-])n1` yielded a melting point of 137 to 139 °C.

Take `O=C(O)CCc1ccc(-c2nc(=O)c3ccccc3s2)nc1`: the melting point was 232 °C.

With `Cc1nc(-c2ccc3c(c2)CCCC3)c(CCC(=O)O)o1`, the melting point lay within 135 to 136 °C.

The molecule `CC1=C(C(=O)NN)C(c2ccccc2Cl)c2c[nH]nc2N1` (stereo not given) displayed a melting point of 220 °C.

Consider `Cc1cc(=S)c2c(O)cc(O)cc2o1`, for which the melting point lay in the range of 244 to 246 °C.

For the molecule `Cc1c(C(C)CC(=O)O)n(Cc2ccc(Cl)cc2)c2ccc(F)cc12` (stereo not given), the melting point stood at 143 °C.

As for `CC1=NC(NC(=O)Nc2cccc(C)c2)C(=O)N(CC(=O)C2CCCCC2)c2c(C)cccc21` (stereo not given), the melting point is 179 to 181 °C.

Consider `CC1CCCN1c1ccc(C#N)c2occc12` (stereo not given), for which the melting point fell in the range of 82 to 83 °C.

With `CCCCc1ncc(/C=C(/C(=O)O)c2ccccc2)n1Cc1ccccc1Cl`, the melting point is 210 to 212 °C.

`O=C1NN(C(=O)c2ccccc2NCc2ccccc2)Cc2ccccc21` had a melting point of 206 to 208 °C.

`CCCCCCCCOc1ccc(C(=O)COC(C)=O)cc1` returned a melting point of 44 to 45 °C.

Regarding `NC(=O)N(O)CCNC(=O)Cc1cccc(Oc2ccccc2)c1`, the melting point is 150 to 152 °C.

`CCOC(=O)C1=C(C)NC(C)=C(C(=O)OCC)C1c1ccccc1Cl`: the melting point was in the range of 120 to 121 °C.

`O=Cc1ccc(-c2cccc(-c3ccc(OC(F)(F)F)cc3)n2)cc1`: the melting point lay within 109 to 112 °C.

Molecule `O=[N+]([O-])c1ccc(Cl)c2c(Cl)ccnc12` yielded a melting point of 116 to 118 °C.

`CCCC(=O)c1noc2ccccc12` registered a melting point of 33 to 35 °C.

In the case of `CC(C)Oc1ccc(Oc2ccc3c(c2)c(C(=O)O)c(CC(=O)O)n3-c2cccc(Cl)c2)cc1`, the melting point was in the range of 188 to 190 °C.

Regarding `COC(=O)CN(C)c1nc(-c2ccc(Br)cc2)cs1`, the melting point was found to be 86 °C.

`CCOC(=O)c1c(CN(C)c2ccccc2)nc2cc(OC)c(OC)cc2c1-c1ccc(OC)c(OC)c1` displayed a melting point of 194 to 196 °C.

As to `CCOC(=O)c1cn(C2CC2)c2c(C)c(F)c(F)c(N)c2c1=O`, the melting point lay in the range of 182 to 186 °C.

`COc1cnc(CS(C)=O)nc1OC(=O)N(C)C` (stereo not given) yielded a melting point of 122 °C.

`O=C1NCCSC1=NO` displayed a melting point of 233 to 235 °C.

The molecule `CC(C)(C)OC(=O)C(=[N+]=[N-])C(=O)C(SCc1ccccc1)C1CC(=O)N1` (stereo not given) displayed a melting point of 119 °C.

On to `Cc1cc(-n2cnnn2)cc(I)c1N`, for which the melting point lay in the range of 172 to 175 °C.

The molecule `COC(=O)CS(=O)(=O)Cc1cccc(-c2nc(=O)c3ccccc3s2)n1` yielded a melting point of 205 to 207 °C.

Molecule `Cc1ccc(C2c3c(C)c(N4C(=O)CC(c5ccccc5)C4=O)c(C)c(C)c3OC2(C)C)cc1` (stereo not given) came in with a melting point of 130 to 131 °C.

Consider `Cc1cc(-n2c(C)ccc2-c2ccc(S(C)(=O)=O)cc2)ccc1-c1ccoc1`, for which the melting point lay in the range of 69 to 75 °C.

`CCCCn1nc(-c2cc(C(C)(C)C)c(O)c(C(C)(C)C)c2)c2cccnc21`: the melting point is 94 to 96 °C.

Turning to `COc1ccc(C2SCC(C(=O)O)N2C(=O)c2ccccc2)cc1` (stereo not given), the melting point lay within 108 to 110 °C.

`COC(=O)/C=C/c1cc(C)cc(NC(C)=O)n1` registered a melting point of 139 °C.

As for `Cc1nnc2ccc(-c3cccc(N(C)C(=O)C4CCC4)c3)nn12`, the melting point lay in the range of 171 to 173 °C.

`C=C1C(O)C(CO)OC1n1cc(CC)c(N)nc1=O` (stereo not given) registered a melting point of 194 to 196 °C.

`Cc1oc(-c2ccccc2)nc1COc1ccc(CON=C(CCC(N)=O)c2ccccc2)cc1`: the melting point fell in the range of 110 to 112 °C.

Regarding `O=[N+]([O-])c1ccc(F)c2ncccc12`, the melting point lay in the range of 132 to 133 °C.

`CCCC1CCC(C2CCC(OCCCO)CC2)CC1` (stereo not given) gave a melting point of 110 to 111 °C.

Molecule `Nc1ccc(C#CCCN2CC=C(c3ccccc3)CC2)nc1` had a melting point of 136 to 137 °C.

Turning to `CCCOC(C(Cc1ccc(Cl)cc1)n1cncn1)C1(C)COCOC1` (stereo not given), the melting point was 94 to 96 °C.

Molecule `CC(=O)Nc1ccc(F)c(-c2ccncc2)c1F` came in with a melting point of 148 to 150 °C.

As for `CC(=O)Oc1ccc(CI)cc1C(OC(C)=O)OC(C)=O`, the melting point lay in the range of 117 to 120 °C.

As for `Nc1nc2c(ncn2CCC(CO)CCl)c(=O)[nH]1` (stereo not given), the melting point lay in the range of 273 to 275 °C.

Consider `CCOC(=O)COc1ccc(NC(=O)NC(=O)c2ccc(C(=N)N)cc2)cc1`, for which the melting point lay in the range of 198 to 200 °C.

As for `Nc1cc(Oc2cc(Oc3cc(N)cc(C(F)(F)F)c3)cc(C(F)(F)F)c2)cc(C(F)(F)F)c1`, the melting point was in the range of 82 to 84 °C.

Molecule `Cn1cc(-c2nn(-c3cccc(C(F)(F)F)c3)ccc2=O)c(-c2ccccc2)n1` returned a melting point of 181 to 183 °C.

As to `CC(C)(CS(C)(=O)=O)NC(=O)c1c(I)cccc1C(=O)Nc1ccc(S(F)(F)(F)(F)F)cc1Cl`, the melting point is 196 to 198 °C.

With `c1ccc2c(c1)ncc1nc(C3CCCCC3)[nH]c12`, the melting point lay within 205 to 206 °C.

For `COC(=O)c1ccc2c(=O)n(CC(C)C)c(CNC(=O)OC(C)(C)C)c(-c3cccs3)c2c1`, the melting point lay in the range of 170 to 171 °C.

`CCOC(=O)C1=C(C)NC(C)=C(C(=O)OCC)C1c1ccccc1C` had a melting point of 128 to 130 °C.

In the case of `CC(C)c1ccc(C(C)(C)C)c(O)c1C(=O)Nc1ccc(S(=O)(=O)C(F)(F)F)cc1Cl`, the melting point was found to be 116 °C.

With `CCOC(=O)c1cc(C#N)cc(CO)n1`, the melting point stood at 87.5 °C.

Take `COc1cccc(N2Sc3ccccc3CC2=O)c1OCc1ccccc1`: the melting point lay within 151 to 153 °C.

In turn, `Cc1cc(C(C)C)c(S(C)(=O)=O)cc1C(=O)N=C(N)N` registered a melting point of 220 to 223 °C.

Regarding `Clc1ccc(N2CCN(Cc3c[nH]c4ncccc34)CC2)cc1`, the melting point is 226 to 227 °C.

In turn, `Nc1ccc(OCC(O)CN2CCN(c3ccccc3C(=O)O)CC2)cc1` (stereo not given) had a melting point of 260 to 263 °C.

On to `CCCN(CCC)CCOc1ccc2[nH]c(C)c(C(=O)OCc3ccccc3)c2c1`, for which the melting point was in the range of 123 to 125 °C.

Regarding `Cc1cc(=O)n(-c2cc(OC(C)C)c(Cl)cc2F)c(=O)n1C`, the melting point was in the range of 149 to 151 °C.

`COCCN(C)c1cc2ncc(C#N)c(C)c2cc1OC` had a melting point of 90 to 96 °C.

Turning to `COc1ccc2c(c1)C(=O)N(c1ccc3ccn(CC#N)c3c1)C2`, the melting point is 218 to 220 °C.

On to `CCNC(=O)/C=C(C)/C=C/C(F)=C(C)/C=C/c1c(C)sc(C)c1C`, for which the melting point fell in the range of 167 to 171 °C.

In turn, `CCOC(=O)c1ncc(Cn2c(NC3CCN(C(=O)OCC)CC3)nc3ccccc32)o1` registered a melting point of 132 °C.

The molecule `Cc1cc2cc(CN3CCC(CC(N)=O)CC3)cnc2cc1NC(=O)c1ccc(-c2ccc(F)cc2)cc1` had a melting point of 249 °C.
